For the assay, the system named is ALP in NHAC (normal human articular chondrocytes). The assay can be described thus: Alkaline Phosphatase (ALP) activity assay: ALP staining and quantitation in NHACs (prevention of chondrocyte hypertrophy). Conditions: human IL-1 beta 10 ng/mL, 12 days; for pIC50: Fast Blue RR staining, high content imaging. Type of assay: cell-based. In outline: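 NHACs were plated with test compound in DMEM containing 10% FBS, and human IL-1 beta was added 5 h later at 10 ng/mL final. Cultures were kept 12 days at 37° C, 5% CO2. Cells were then fixed, ALP-stained with Fast Blue RR/Naphthol AS-MX, and hypertrophic cells were imaged and quantified by high-content imaging.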

Setting [1] is: Chondrocyte, 288 h, read-out: ALP in NHAC (% Efficacy).

pIC50: −log10 of the molar value. Where two headings read alike, the source gives them in different places.

Turning to `Cn1cc([C@@]23C[C@]2(C(=O)Nc2ccc(C(F)(F)F)cc2)[C@H]2C[C@H](O)[C@@H]3O2)c(C(F)(F)F)n1` (racemic) [Example 42, rac-(1R,2R,4S,5R,6S)-6-hydroxy-4-(1-methyl-3-(trifluoromethyl)-1H-pyrazol-4-yl)-N-(4-(trifluoromethyl)phenyl)-8-oxatricyclo[3.2.1.02,4]octane-2-carboxamide], the pIC50 (in general, the negative decadic logarithm of the IC50, by convention in mol/L) (Chondrocyte, 288 h) was below 4.52. In addition, the Emax under setting [1] is 46%.

Where the note is “Chondrocyte, 288 h”, `O=C(Nc1cccc(C(F)(F)F)c1)[C@]12C[C@@]1(c1cccc(C(F)(F)F)c1)[C@H]1O[C@@H]2C[C@@H]1O` (racemic) [Example 67, rac-(1R,2R,4S,5R,6S)-6-hydroxy-N,4-bis(3-(trifluoromethyl)phenyl)-8-oxatricyclo[3.2.1.02,4]octane-2-carboxamide] had a pIC50 of 4.57. Moreover, the Emax under setting [1] was 54%.

For the molecule `Cn1cc([C@@]23C[C@]2(C(=O)Nc2cc(C(F)(F)F)ccc2F)[C@H]2C[C@H](O)[C@@H]3O2)c(C(F)(F)F)n1` (racemic) [Example 57, rac-(1R,2R,4S,5R,6S)-N-(2-fluoro-5-(trifluoromethyl)phenyl)-6-hydroxy-4-(1-methyl-3-(trifluoromethyl)-1H-pyrazol-4-yl)-8-oxatricyclo[3.2.1.02,4]octane-2-carboxamide], the negative-log IC50 (pIC50) (Chondrocyte, 288 h) is below 4.52. Besides, the Emax under setting [1] came to 24%.

Regarding `O=C(Nc1ccc(C(F)(F)F)c(Cl)c1)[C@]12C[C@@]1(c1ccnc(F)c1)[C@H]1O[C@@H]2C[C@@H]1O` (racemic) [Example 3, rac-(1R,2R,4S,5R,6S)—N-(3-chloro-4-(trifluoromethyl)phenyl)-4-(2-fluoropyridin-4-yl)-6-hydroxy-8-oxatricyclo[3.2.1.02,4]octane-2-carboxamide], the negative-log IC50 (pIC50) (Chondrocyte, 288 h) is 4.92. The Emax under setting [1] is 71%.

Take `COc1ccc(NC(=O)[C@]23C[C@@]2(c2cn(C)nc2C(F)(F)F)[C@H]2O[C@@H]3C[C@@H]2O)cc1C(F)(F)F` (racemic) [Example 60, rac-(1R,2R,4S,5R,6S)-6-hydroxy-N-(4-methoxy-3-(trifluoromethyl)phenyl)-4-(1-methyl-3-(trifluoromethyl)-1H-pyrazol-4-yl)-8-oxatricyclo[3.2.1.02,4]octane-2-carboxamide]: where the note is “Chondrocyte, 288 h”, the pIC50 was below 4.52. The Emax under setting [1] was 27%.

Under “Chondrocyte, 288 h”, `COc1cc([C@@]23C[C@]2(C(=O)Nc2cc(C(F)(F)F)ccc2C)[C@H]2C[C@H](O)[C@@H]3O2)ccn1` (racemic) [Example 30, rac-(1R,2R,4S,5R,6S)-6-hydroxy-4-(2-methoxypyridin-4-yl)-N-(2-methyl-5-(trifluoromethyl)phenyl)-8-oxatricyclo[3.2.1.02,4]octane-2-carboxamide] had a pIC50 below 4.52. Also, under setting [1], the Emax amounted to 27%.

Consider `COc1cc([C@@]23C[C@]2(C(=O)Nc2cc(C)cc(C(F)(F)F)c2)[C@H]2C[C@H](O)[C@@H]3O2)ccn1` (racemic) [Example 29, rac-(1R,2R,4S,5R,6S)-6-hydroxy-4-(2-methoxypyridin-4-yl)-N-(3-methyl-5-(trifluoromethyl)phenyl)-8-oxatricyclo[3.2.1.02,4]octane-2-carboxamide], for which the pIC50 (Chondrocyte, 288 h) is 5.00. Besides, under setting [1], the Emax turned out to be 74%.

In the case of `Cc1cc(NC(=O)[C@]23C[C@@]2(c2cn(C)nc2C(F)(F)F)[C@H]2O[C@@H]3C[C@@H]2O)cc(C(F)(F)F)c1` (racemic) [Example 52, rac-(1R,2R,4S,5R,6S)-6-hydroxy-4-(1-methyl-3-(trifluoromethyl)-1H-pyrazol-4-yl)-N-(3-methyl-5-(trifluoromethyl)phenyl)-8-oxatricyclo[3.2.1.02,4]octane-2-carboxamide], the negative-log IC50 (pIC50) (Chondrocyte, 288 h) is 4.68. Further, the Emax under setting [1] turned out to be 70%.

Regarding `Cn1cc([C@@]23C[C@]2(C(=O)Nc2cccc(C(F)(F)F)c2F)[C@H]2C[C@H](O)[C@@H]3O2)c(C(F)(F)F)n1` (racemic) [Example 54, rac-(1R,2R,4S,5R,6S)—N-(2-fluoro-3-(trifluoromethyl)phenyl)-6-hydroxy-4-(1-methyl-3-(trifluoromethyl)-1H-pyrazol-4-yl)-8-oxatricyclo[3.2.1.02,4]octane-2-carboxamide], the pIC50 (Chondrocyte, 288 h) is below 4.52. Further, the Emax under setting [1] worked out at 7%.

For the setting “Chondrocyte, 288 h”, `O=C(Nc1cccc(C(F)(F)F)c1F)[C@]12C[C@@]1(c1ccnc(F)c1)[C@H]1O[C@@H]2C[C@@H]1O` (racemic) [Example 14, rac-(1R,2R,4S,5R,6S)—N-(2-fluoro-3-(trifluoromethyl)phenyl)-4-(2-fluoropyridin-4-yl)-6-hydroxy-8-oxatricyclo[3.2.1.02,4]octane-2-carboxamide] gave a negative logarithm of the IC50 (pIC50) below 4.52. In addition, the Emax under setting [1] is 8%.

`COc1cc([C@@]23C[C@]2(C(=O)Nc2ccc(Cl)c(C(F)(F)F)c2)[C@H]2C[C@H](O)[C@@H]3O2)ccn1` (racemic) [Example 70, rac-(1R,2R,4S,5R,6S)—N-(4-chloro-3-(trifluoromethyl)phenyl)-6-hydroxy-4-(2-methoxypyridin-4-yl)-8-oxatricyclo[3.2.1.02,4]octane-2-carboxamide] gave a negative-log IC50 (pIC50) (Chondrocyte, 288 h) below 4.52. The Emax under setting [1] worked out at 39%.

For the molecule `Cn1cc([C@@]23C[C@]2(C(=O)Nc2cc(C(F)(F)F)ccn2)[C@H]2C[C@H](O)[C@@H]3O2)c(C(F)(F)F)n1` (racemic) [Example 43, rac-(1R,2R,4S,5R,6S)-6-hydroxy-4-(1-methyl-3-(trifluoromethyl)-1H-pyrazol-4-yl)-N-(4-(trifluoromethyl)pyridin-2-yl)-8-oxatricyclo[3.2.1.02,4]octane-2-carboxamide], the pIC50 (Chondrocyte, 288 h) was below 4.52. Moreover, the Emax under setting [1] came to 49%.

As for `COc1cc([C@@]23C[C@]2(C(=O)Nc2ccc(C(F)(F)F)c(F)c2)[C@H]2C[C@H](O)[C@@H]3O2)ccn1` (racemic) [Example 75, rac-(1R,2R,4S,5R,6S)—N-(3-fluoro-4-(trifluoromethyl)phenyl)-6-hydroxy-4-(2-methoxypyridin-4-yl)-8-oxatricyclo[3.2.1.02,4]octane-2-carboxamide], the pIC50 (Chondrocyte, 288 h) was below 4.52. Also, the Emax under setting [1] worked out at 26%.

As for `O=C(Nc1cc(C(F)(F)F)ccn1)[C@]12C[C@@]1(c1cccc(C(F)(F)F)c1)[C@H]1O[C@@H]2C[C@@H]1O` (racemic) [Example 82, rac-(1R,2R,4S,5R,6S)-6-hydroxy-4-(3-(trifluoromethyl)phenyl)-N-(4-(trifluoromethyl)pyridin-2-yl)-8-oxatricyclo[3.2.1.02,4]octane-2-carboxamide], the pIC50 (Chondrocyte, 288 h) was below 4.52. Further, the Emax under setting [1] worked out at 36%.

`Cn1cc([C@@]23C[C@]2(C(=O)Nc2ccc(C(F)(F)F)c(Cl)c2)[C@H]2C[C@H](O)[C@@H]3O2)c(C(F)(F)F)n1` (racemic) [Example 40, rac-(1R,2R,4S,5R,6S)—N-(3-chloro-4-(trifluoromethyl)phenyl)-6-hydroxy-4-(1-methyl-3-(trifluoromethyl)-1H-pyrazol-4-yl)-8-oxatricyclo[3.2.1.02,4]octane-2-carboxamide] showed a pIC50 (Chondrocyte, 288 h) of 5.02. Further, the Emax under setting [1] was determined as 91%.

“(1R,2R,4S,5R,6S)—N-(2-cyano-5-(trifluoromethyl)phenyl)-6-hydroxy-4-(2-methoxypyridin-4-yl)-8-oxatricyclo[3.2.1.02,4]octane-2-carboxamide or (1S,2S,4R,5S,6R)—N-(2-cyano-5-(trifluoromethyl)phenyl)-6-hydroxy-4-(2-methoxypyridin-4-yl)-8-oxatricyclo[3.2.1.02,4]octane-2-carboxamide [Example 39b]”: the Emax entry is given as “(97) %” and the negative logarithm of the IC50 (pIC50) is 6.60.

`O=C(Nc1cc(C(F)(F)F)cc(Cl)n1)[C@]12C[C@@]1(c1ccnc(F)c1)[C@H]1O[C@@H]2C[C@@H]1O` (racemic) [Example 4, rac-(1R,2R,4S,5R,6S)—N-(6-chloro-4-(trifluoromethyl)pyridin-2-yl)-4-(2-fluoropyridin-4-yl)-6-hydroxy-8-oxatricyclo[3.2.1.02,4]octane-2-carboxamide] showed a pIC50 (Chondrocyte, 288 h) below 4.52. The Emax under setting [1] was determined as 0%.

On to `Cc1cc(C(F)(F)F)cc(NC(=O)[C@]23C[C@@]2(c2cn(C)nc2C(F)(F)F)[C@H]2O[C@@H]3C[C@@H]2O)n1` (racemic) [Example 47, rac-(1R,2R,4S,5R,6S)-6-hydroxy-4-(1-methyl-3-(trifluoromethyl)-1H-pyrazol-4-yl)-N-(6-methyl-4-(trifluoromethyl)pyridin-2-yl)-8-oxatricyclo[3.2.1.02,4]octane-2-carboxamide], for which, under “Chondrocyte, 288 h”, the pIC50 is below 4.52. Also, the Emax under setting [1] was 36%.

On to `Cn1cc([C@@]23C[C@]2(C(=O)Nc2cc(C(F)(F)F)cc(C(F)(F)F)c2)[C@H]2C[C@H](O)[C@@H]3O2)c(C(F)(F)F)n1` (racemic) [Example 63, rac-(1R,2R,4S,5R,6S)—N-(3,5-bis(trifluoromethyl)phenyl)-6-hydroxy-4-(1-methyl-3-(trifluoromethyl)-1H-pyrazol-4-yl)-8-oxatricyclo[3.2.1.02,4]octane-2-carboxamide], for which the pIC50 (Chondrocyte, 288 h) was 4.54. In addition, under setting [1], the Emax came out at 56%.

Take `COc1cc([C@@]23C[C@]2(C(=O)Nc2cc(C(F)(F)F)ccc2F)[C@H]2C[C@H](O)[C@@H]3O2)ccn1` (racemic) [Example 33, rac-(1R,2R,4S,5R,6S)—N-(2-fluoro-5-(trifluoromethyl)phenyl)-6-hydroxy-4-(2-methoxypyridin-4-yl)-8-oxatricyclo[3.2.1.02,4]octane-2-carboxamide]: the pIC50 (Chondrocyte, 288 h) was below 4.52. Further, under setting [1], the Emax amounted to 12%.

Under “Chondrocyte, 288 h”, `O=C(Nc1cc(C(F)(F)F)ccn1)[C@]12C[C@@]1(c1ccnc(F)c1)[C@H]1O[C@@H]2C[C@@H]1O` (racemic) [Example 1, rac-(1R,2R,4S,5R,6S)-4-(2-fluoropyridin-4-yl)-6-hydroxy-N-(4-(trifluoromethyl)pyridin-2-yl)-8-oxatricyclo[3.2.1.02,4]octane-2-carboxamide] showed a negative-log IC50 (pIC50) below 4.52. Moreover, under setting [1], the Emax was 28%.
